Measured values from patent publication US10959432B2, “Microbiocidal oxadiazole derivatives” (Syngenta Participations AG, priority 2016, dated 2021).
Where “and” joins values, the source holds several entries; their conditions need not be identical. Equal values may be shown once.

Assays:
[1] = test system: Puccinia recondita f. sp. tritici; assay: Fungicidal activity against Puccinia recondita f. sp. tritici / wheat / leaf disc preventative (brown rust); format: in vivo; details: foliar, 200 ppm in the applied formulation, wheat leaf segments cv. Kanzler, preventative (inoculated 1 day after application), assessed 7 to 9 days after application, read-out: disease control compared to untreated control leaf disks
Outline: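 Wheat cv. Kanzler leaf segments on agar sprayed with formulated compound diluted in water, inoculated with P. recondita spores 1 day later. Incubated at 19C, 75% rh, 12 h light/12 h dark; scored 7 to 9 days after application as percent disease control versus untreated segments. Test rate 200 ppm.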

[2] = test system: Puccinia recondita f. sp. tritici; assay: Fungicidal activity against Puccinia recondita f. sp. tritici / wheat / leaf disc curative (brown rust); format: in vivo; details: foliar, 200 ppm in the applied formulation, wheat leaf segments cv. Kanzler, curative (applied 1 day after inoculation), assessed 6 to 8 days after application, read-out: disease control compared to untreated control leaf disks
Outline: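 Wheat cv. Kanzler leaf segments on agar, spore-inoculated, held dark at 19° C./75% RH; formulated compound in water sprayed 1 day post-inoculation (curative). Incubated 19° C., 75% RH, 12 h light/12 h dark; percent disease control vs untreated scored 6 to 8 days after application.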

[3] = test system: Phakopsora pachyrhizi; assay: Fungicidal activity against Phakopsora pachyrhizi / soybean / leaf disc preventative (Asian soybean rust); format: in vivo; details: foliar, 200 ppm in the applied formulation, soybean leaf disks, preventative (inoculated one day after application), assessed 12 to 14 days after application, read-out: disease control compared to untreated control leaf disks
Outline: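 Soybean leaf discs on water agar sprayed with formulated compound diluted in water; spore suspension sprayed on lower leaf surface one day later. Incubated 24-36 h dark at 20° C, 75% rh, then 20° C, 12 h light/day, 75% rh. Percent disease control versus untreated scored 12 to 14 days after application.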

[4] = test system: Glomerella laqenarium (Colletotrichum lagenarium); assay: Fungicidal activity against Glomerella lagenarium (Colletotrichum lagenarium) liquid culture / cucumber / preventative (anthracnose); format: cell-based; details: Colletotrichum orbiculare; 20 ppm in the applied formulation; liquid culture in PDB, 24° C., 3 to 4 days after application; read-out: disease control compared to untreated control (inhibition of growth measured photometrically)
Outline: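 Cryostored conidia mixed into potato dextrose broth and added to test compound (from DMSO solution) in microtiter plates. Incubated at 24 °C; growth inhibition read photometrically 3 to 4 days after application, as percent activity versus untreated check.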

[5] = test system: Uromyces viciae-fabae; assay: Fungicidal activity against Uromyces viciae-fabae / field bean / leaf disc preventative (faba-bean rust); format: in vivo; details: foliar, 288 h, 100 ppm in the applied formulation, field bean leaf discs, preventative (inoculated two hours after application), assessed 12 days after application, read-out: disease control compared to untreated control leaf discs
Outline: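 Field bean leaf discs on water agar treated with 10 μl compound in acetone plus spreader, then spray-inoculated on the lower surface with Uromyces viciae-fabae spores 2 h later. Incubation at 22 °C, 18 h day, 70% RH; percent disease control versus untreated scored 12 days after application, compounds at 100 ppm.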

melting point | Compound | pest or weed control at 200 ppm [1] | pest or weed control at 200 ppm [2] | pest or weed control at 200 ppm [3] | inhibition at 20 ppm [4] | pest or weed control at 100 ppm [5]
108 to 109.3 °C | C=CCNC(=O)c1ccc(-c2noc(C(F)(F)F)n2)cc1F [Compound 3b.3, N-allyl-2-fluoro-4-[5-(trifluoromethyl)-1,2,4-oxadiazol-3-yl]benzamide] | ≥ 80% | ≥ 80% | ≥ 80% | ≥ 80% | ≥ 80%
95.6 to 96.7 °C | O=C(NCC1CCCO1)c1ccc(-c2noc(C(F)(F)F)n2)cc1F (stereo not drawn) [Compound 1b.17, 2-fluoro-N-(tetrahydrofuran-2-ylmethyl)-4-[5-(trifluoromethyl)-1,2,4-oxadiazol-3-yl]benzamide] | ≥ 80% | ≥ 80% | ≥ 80% | ≥ 80% | ≥ 80%
134 to 136 °C and 134 to 135.4 °C | O=C(NCC1CCOCC1)c1ccc(-c2noc(C(F)(F)F)n2)cc1F [Compound 1b.18, 2-fluoro-N-(tetrahydropyran-4-ylmethyl)-4-[5-(trifluoromethyl)-1,2,4-oxadiazol-3-yl]benzamide] | ≥ 80% | ≥ 80% | ≥ 80% | ≥ 80% | ≥ 80%
118.5 to 119.9 °C | CCCNC(=O)c1ccc(-c2noc(C(F)(F)F)n2)cc1F [Compound 3b.1, 2-fluoro-N-propyl-4-[5-(trifluoromethyl)-1,2,4-oxadiazol-3-yl]benzamide] | ≥ 80% | ≥ 80% | ≥ 80% | ≥ 80% | ≥ 80%
126.6 to 128.3 °C | CC(C)CNC(=O)c1ccc(-c2noc(C(F)(F)F)n2)cc1F [Compound 3b.5, 2-fluoro-N-isobutyl-4-[5-(trifluoromethyl)-1,2,4-oxadiazol-3-yl]benzamide] | ≥ 80% | ≥ 80% | ≥ 80% | ≥ 80% | ≥ 80%
127.8 to 130.8 °C | O=C(NCc1cnc(Cl)s1)c1ccc(-c2noc(C(F)(F)F)n2)cc1F [Compound 5b.14, N-[(2-chlorothiazol-5-yl)methyl]-2-fluoro-4-[5-(trifluoromethyl)-1,2,4-oxadiazol-3-yl]benzamide] | ≥ 80% | ≥ 80% | ≥ 80% | ≥ 80% | ≥ 80%
152.5 to 155.9 °C | CC1CC(NC(=O)c2ccc(-c3noc(C(F)(F)F)n3)cc2F)=NO1 (stereo not drawn) [Compound 1b.15, 2-fluoro-N-(5-methyl-4,5-dihydroisoxazol-3-yl)-4-[5-(trifluoromethyl)-1,2,4-oxadiazol-3-yl]benzamide] | ≥ 80% | ≥ 80% | ≥ 80% | ≥ 80% | ≥ 80%
125 to 128 °C | CN(C(=O)c1ccc(-c2noc(C(F)(F)F)n2)cc1)c1ncn[nH]1 [Compound 5a.5, N-methyl-N-(1H-1,2,4-triazol-5-yl)-4-[5-(trifluoromethyl)-1,2,4-oxadiazol-3-yl]benzamide] | ≥ 80% | ≥ 80% | ≥ 80% | ≥ 80% | ≥ 80%
87.6 to 89 °C | COCCNC(=O)c1ccc(-c2noc(C(F)(F)F)n2)cc1F [Compound 3b.6, 2-fluoro-N-(2-methoxyethyl)-4-[5-(trifluoromethyl)-1,2,4-oxadiazol-3-yl]benzamide] | ≥ 80% | ≥ 80% | ≥ 80% | ≥ 80% | ≥ 80%
69.2 to 69.7 °C | C#CC(C)(C)NC(=O)c1ccc(-c2noc(C(F)(F)F)n2)cc1F [Compound 3b.8, N-(1,1-dimethylprop-2-ynyl)-2-fluoro-4-[5-(trifluoromethyl)-1,2,4-oxadiazol-3-yl]benzamide] | ≥ 80% | ≥ 80% | ≥ 80% | ≥ 80% | ≥ 80%
135 to 136 °C and 135 to 146 °C | C=CCNC(=O)c1ccc(-c2noc(C(F)(F)F)n2)cc1 [Compound 3a.1, N-allyl-4-[5-(trifluoromethyl)-1,2,4-oxadiazol-3-yl]benzamide] | ≥ 80% | ≥ 80% | ≥ 80% | ≥ 80% | ≥ 80%
